Laboratory results as given in the supplement of paper PMC10307832.

Experiments:
Assay in all cases: relative viability (nuclei count vs DMSO), 5 days (fraction); higher = more cells survive
Lapatinib + Foretinib = compound: CS(=O)(=O)CCNCc1ccc(-c2ccc3ncnc(Nc4ccc(OCc5cccc(F)c5)c(Cl)c4)c3c2)o1 [Lapatinib] + COc1cc2c(Oc3ccc(NC(=O)C4(C(=O)Nc5ccc(F)cc5)CC4)cc3F)ccnc2cc1OCCCN1CCOCC1 [Foretinib] (partner 0.25 µM)
Method in brief: (§1)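 Each reported value is a median over duplicate plates. It expresses relative viability: treated-well nuclei count divided by vehicle-well nuclei count. Lung cancer cell lines in 1536-well plates were dosed by pin tool a day after seeding, alone with one drug or with a fixed anchor-drug dose plus five library-drug doses (not always all listed) in √10 steps, and nuclei were counted after 5 days.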

Lapatinib + AZD7762 = compound: CS(=O)(=O)CCNCc1ccc(-c2ccc3ncnc(Nc4ccc(OCc5cccc(F)c5)c(Cl)c4)c3c2)o1 [Lapatinib] + NC(=O)Nc1cc(-c2cccc(F)c2)sc1C(=O)N[C@H]1CCCNC1 [AZD7762] (partner 0.2 µM)
Method in brief: as §1

Wnt-C59 + Navitoclax = compound: CC1=NC=CC(=C1)C2=CC=C(C=C2)CC(=O)NC3=CC=C(C=C3)C4=CN=CC=C4 [Wnt-C59] + CC1(C)CCC(c2ccc(Cl)cc2)=C(CN2CCN(c3ccc(C(=O)NS(=O)(=O)c4ccc(N[C@H](CCN5CCOCC5)CSc5ccccc5)c(S(=O)(=O)C(F)(F)F)c4)cc3)CC2)C1 [Navitoclax] (partner 0.5 µM)
Method in brief: as §1

Lapatinib + Alpelisib = compound: CS(=O)(=O)CCNCc1ccc(-c2ccc3ncnc(Nc4ccc(OCc5cccc(F)c5)c(Cl)c4)c3c2)o1 [Lapatinib] + Cc1nc(NC(=O)N2CCC[C@H]2C(N)=O)sc1-c1ccnc(C(C)(C)C(F)(F)F)c1 [Alpelisib] (partner 2 µM)
Method in brief: as §1

Cell Line	relative viability (Lapatinib + Foretinib; first compound 0.02 µM)	relative viability (Lapatinib + Foretinib; first compound 0.06325 µM)	relative viability (Lapatinib + Foretinib; first compound 0.2 µM)	relative viability (Lapatinib + Foretinib; first compound 0.6325 µM)	relative viability (Lapatinib + Foretinib; first compound 2 µM)	relative viability (Lapatinib + AZD7762; first compound 0.02 µM)	relative viability (Lapatinib + AZD7762; first compound 0.06325 µM)	relative viability (Lapatinib + AZD7762; first compound 0.2 µM)	relative viability (Lapatinib + AZD7762; first compound 0.6325 µM)	relative viability (Lapatinib + AZD7762; first compound 2 µM)	relative viability (Wnt-C59 + Navitoclax; first compound 0.001 µM)	relative viability (Wnt-C59 + Navitoclax; first compound 0.01 µM)	relative viability (Wnt-C59 + Navitoclax; first compound 0.03162 µM)	relative viability (Wnt-C59 + Navitoclax; first compound 0.1 µM)	relative viability (Lapatinib + Alpelisib; first compound 0.02 µM)	relative viability (Lapatinib + Alpelisib; first compound 0.06325 µM)	relative viability (Lapatinib + Alpelisib; first compound 0.2 µM)	relative viability (Lapatinib + Alpelisib; first compound 0.6325 µM)	relative viability (Lapatinib + Alpelisib; first compound 2 µM)
LU99A	0.784	0.72	0.74	0.836	0.815	0.329	0.217	0.363	0.388	0.329	0.779	0.933	0.822	0.772	0.564	0.476	0.527	0.524	0.54
NCI-H1793		0.5	0.497	0.524	0.422		0.355	0.304	0.437	0.186	0.397	0.398	0.378	0.95				0.563	0.384
NCI-H2085		0.737	0.899	0.862	0.535	0.881	0.886	0.929	0.797	0.526	1.28	1.15	1.23	1.05	0.869	0.845	0.932	1	0.694
NCI-H2126			1.13	1.03	0.612	0.55	0.927	0.983	0.975	0.928	0.865	0.87	0.866	0.872		0.587	0.668	0.677	0.549
NCI-H2347		0.694	0.854	0.994	1.02	0.495	0.705	0.637	0.81	0.612	0.897	0.846	1	0.748	0.901	1.01	1.07	0.844	1.02
NCI-H1437	1.23	1.33	1.32	1.2	1.12	1.13	1.11	1.1	1.07	1.06	1.16	1.03	1.16	1.09	1	0.869	1.02	0.864	0.866
NCI-H2170	1.05	0.961	0.784	0.655	0.25	0.824	0.574	0.485	0.252	0.14	0.608	0.35	0.595	0.527	0.76	0.551	0.477	0.376	0.21
LCLC-97TM1			0.843	0.973	1.02			0.178	0.224	0.259	0.429	0.445	0.505	0.264			0.232	0.284	0.257
